Experimental findings from BindingDB's records for PubMed 34843914 (China Pharmaceutical University, 2022) are described below.

The assay deals with Poly [ADP-ribose] polymerase 1 (Homo sapiens, UniProt P09874). As to the kind of experiment: Inhibition of PARP1 (unknown origin).
Sequence of Poly [ADP-ribose] polymerase 1 (P09874 whole entry): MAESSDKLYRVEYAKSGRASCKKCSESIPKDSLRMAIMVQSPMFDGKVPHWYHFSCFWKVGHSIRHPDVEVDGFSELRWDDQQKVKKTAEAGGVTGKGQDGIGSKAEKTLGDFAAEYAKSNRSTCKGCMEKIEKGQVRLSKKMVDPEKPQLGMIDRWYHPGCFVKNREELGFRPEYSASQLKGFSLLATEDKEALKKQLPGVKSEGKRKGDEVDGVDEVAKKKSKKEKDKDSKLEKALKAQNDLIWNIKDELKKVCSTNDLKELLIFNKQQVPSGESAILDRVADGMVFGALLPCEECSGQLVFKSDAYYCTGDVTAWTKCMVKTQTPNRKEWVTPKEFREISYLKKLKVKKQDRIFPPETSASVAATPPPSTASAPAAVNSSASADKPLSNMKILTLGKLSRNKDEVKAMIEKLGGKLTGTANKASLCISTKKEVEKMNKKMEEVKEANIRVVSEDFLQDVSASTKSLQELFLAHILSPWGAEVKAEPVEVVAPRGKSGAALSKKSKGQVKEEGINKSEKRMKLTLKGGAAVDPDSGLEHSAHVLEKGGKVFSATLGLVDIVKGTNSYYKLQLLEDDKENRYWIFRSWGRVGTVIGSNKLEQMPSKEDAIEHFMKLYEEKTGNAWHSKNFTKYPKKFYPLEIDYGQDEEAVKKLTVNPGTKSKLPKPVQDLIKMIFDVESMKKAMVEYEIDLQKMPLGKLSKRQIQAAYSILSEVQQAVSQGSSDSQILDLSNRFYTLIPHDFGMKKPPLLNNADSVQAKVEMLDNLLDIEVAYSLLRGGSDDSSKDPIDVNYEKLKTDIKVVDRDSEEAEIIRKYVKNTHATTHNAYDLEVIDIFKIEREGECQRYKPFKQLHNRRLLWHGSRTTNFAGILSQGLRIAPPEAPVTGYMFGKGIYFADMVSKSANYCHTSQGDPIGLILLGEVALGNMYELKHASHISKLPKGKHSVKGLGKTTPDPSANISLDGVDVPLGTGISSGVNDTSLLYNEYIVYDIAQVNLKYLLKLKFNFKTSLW

Turning to `O=c1cc(O)cc2oc(-c3ccc(O)c(-c4c(O)cc(O)c5c(=O)cc(-c6ccc(O)cc6)oc45)c3)cc(O)c1-2`, half-maximal inhibition (IC50) was put at 259 nM.
